Where a name gives a salt, the structure may show the parent alone.
Molecular target: T1, Recombinant human HSD17B13 enzyme (Homo sapiens, UniProt Q7Z5P4)
T1 sequence (Q7Z5P4 20-300): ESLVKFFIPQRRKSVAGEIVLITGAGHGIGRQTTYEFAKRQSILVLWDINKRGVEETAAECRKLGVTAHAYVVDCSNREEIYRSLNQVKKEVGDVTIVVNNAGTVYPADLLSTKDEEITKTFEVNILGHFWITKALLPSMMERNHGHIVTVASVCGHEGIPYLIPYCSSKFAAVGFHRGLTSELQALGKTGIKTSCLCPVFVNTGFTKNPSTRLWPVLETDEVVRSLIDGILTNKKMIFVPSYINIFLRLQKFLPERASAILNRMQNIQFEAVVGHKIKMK
Assay: HSD17b13 NAD(P)H-Glo biochemical assay
Settings: 50 μM estradiol, 1 mM NAD+, 37° C. for 3 hours; read-out: HSD17β13 IC50
Outline: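 Enzyme preincubated with inhibitor 20 min at RT in 20 mM Tris pH7.4, 0.002% Tween-20, 0.02% BSA, then reacted 3 h at 37° C with 50 μM estradiol and 1 mM NAD+ (final). NADH formation read by NAD(P)H-Glo luminescence after 1 h at RT.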

Row | IC50 | SMILES
1 | 100 to 1000 nM | Cn1nc(-c2cc(C(F)(F)F)c(F)c(O)c2F)c2cnc(C3CCCN(Cc4ccccc4)C3)nc21 (stereo not drawn) [Compound 14.01, 3-(6-(1-Benzylpiperidin-3-yl)-1-methyl-1H-pyrazolo[3,4-d]pyrimidin-3-yl)-2,6-difluoro-5-(trifluoromethyl)phenol hydrochloride]
2 | ≤ 100 nM | Cn1nc(-c2cc(C(F)(F)F)c(F)c(O)c2F)c2cnc(N3CCOCC3CC3CCCCC3)nc21 (stereo not drawn) [Compound 15.03, 3-(6-(3-(Cyclohexylmethyl)morpholino)-1-methyl-1H-pyrazolo[3,4-d]pyrimidin-3-yl)-2,6-difluoro-5-(trifluoromethyl)phenol]
3 | ≤ 100 nM | Cn1nc(-c2cc(C(F)(F)F)c(F)c(O)c2F)c2cnc(N3CCOCC3Cc3cccnc3)nc21 (stereo not drawn) [Compound 15.07, 2,6-Difluoro-3-(1-methyl-6-(3-(pyridin-3-ylmethyl)morpholino)-1H-pyrazolo[3,4-d]pyrimidin-3-yl)-5-(trifluoromethyl)phenol]
4 | ≤ 100 nM | Cn1nc(-c2cc(C(F)(F)F)c(F)c(O)c2F)c2cnc(N3CC[C@@H]3Cc3ccccc3)nc21 [Compound 15.11, (S)-3-(6-(2-Benzylazetidin-1-yl)-1-methyl-1H-pyrazolo[3,4-d]pyrimidin-3-yl)-2,6-difluoro-5-(trifluoromethyl)phenol]
5 | ≤ 100 nM | CCn1nc(-c2cc(C(F)(F)F)c(F)c(O)c2F)c2cnc(N3CCOC[C@H]3Cc3ccccc3)nc21 [Compound 15.12, (R)-3-(6-(3-Benzylmorpholino)-1-ethyl-1H-pyrazolo[3,4-d]pyrimidin-3-yl)-2,6-difluoro-5-(trifluoromethyl)phenol]

More lines, now with the values behind:

Row | SMILES | IC50
6 | Cn1nc(-c2cc(C(F)(F)F)c(F)c(O)c2F)c2cnc(N3CCN(S(C)(=O)=O)CC3CC3CCCCC3)nc21 (stereo not drawn) [Compound 15, 3-(6-(2-(Cyclohexylmethyl)-4-(methylsulfonyl)piperazin-1-yl)-1-methyl-1H-pyrazolo[3,4-d]pyrimidin-3-yl)-2,6-difluoro-5-(trifluoromethyl)phenol] | ≤ 100 nM
7 | Cn1nc(-c2cc(C(F)(F)F)c(F)c(O)c2F)c2cnc(N3CCN(S(C)(=O)=O)C[C@H]3CC3CCCCC3)nc21 [Compound 15.02, (R)-3-(6-(2-(Cyclohexylmethyl)-4-(methylsulfonyl)piperazin-1-yl)-1-methyl-1H-pyrazolo[3,4-d]pyrimidin-3-yl)-2,6-difluoro-5-(trifluoromethyl)phenol] | ≤ 100 nM
8 | Cn1nc(-c2cc(C(F)(F)F)c(F)c(O)c2F)c2cnc(N3CCOC[C@@H]3CC3CCCCC3)nc21 [Compound 15.05, (S)-3-(6-(3-(Cyclohexylmethyl)morpholino)-1-methyl-1H-pyrazolo[3,4-d]pyrimidin-3-yl)-2,6-difluoro-5-(trifluoromethyl)phenol] | ≤ 100 nM
9 | Cn1nc(-c2cc(C(F)(F)F)c(F)c(O)c2F)c2cnc(N3CCOCC3Cc3ccccn3)nc21 (stereo not drawn) [Compound 15.06, 2,6-Difluoro-3-(1-methyl-6-(3-(pyridin-2-ylmethyl)morpholino)-1H-pyrazolo[3,4-d]pyrimidin-3-yl)-5-(trifluoromethyl)phenol] | ≤ 100 nM
10 | Cn1nc(-c2cc(C(F)(F)F)c(F)c(O)c2F)c2cnc(N3CCOCC3Cc3ccncc3)nc21 (stereo not drawn) [Compound 15.08, 2,6-Difluoro-3-(1-methyl-6-(3-(pyridin-4-ylmethyl)morpholino)-1H-pyrazolo[3,4-d]pyrimidin-3-yl)-5-(trifluoromethyl)phenol] | ≤ 100 nM
11 | Cn1nc(-c2cc(C(F)(F)F)c(F)c(O)c2F)c2cnc(N3CC(=O)NC[C@H]3Cc3ccccc3)nc21 [Compound 15.09, (R)-5-Benzyl-4-(3-(2,4-difluoro-3-hydroxy-5-(trifluoromethyl)phenyl)-1-methyl-1H-pyrazolo[3,4-d]pyrimidin-6-yl)piperazin-2-one] | ≤ 100 nM
12 | Cn1nc(-c2cc(C(F)(F)F)c(F)c(O)c2F)c2cnc(N3CCOC[C@H]3C(C)(C)O)nc21 [Compound 15.13, (S)-2,6-Difluoro-3-(6-(3-(2-hydroxypropan-2-yl)morpholino)-1-methyl-1H-pyrazolo[3,4-d]pyrimidin-3-yl)-5-(trifluoromethyl)phenol] | ≤ 100 nM

Source: US20240368127A1, “HSD17B13 INHIBITORS AND USES THEREOF” (FL2022-001, Inc., priority 2021, published 2024)
